“And” between values parts separate entries of the source, which are not always exact repeats. Identical values can stand only once.
How the values were obtained:
[1] = biological target: T1, 5-HT1B (Homo sapiens, UniProt P28222); assay: Radioligand binding assay, 5-HT1B
T1 construct: expressed in transfected cells
Procedure: (§1) [^3H] […] The reactions are incubated at room temperature for 3 hr. and then counted in a Trilux Microbeta™ scintillation counter to detect receptor-bound radioligand. Binding data are analyzed by computer-assisted 4 parameter fit analysis (ID Business Solutions Ltd, Guildford, Surrey, UK). […]
(§2) Affinity for other serotonin receptor subtypes as well as for alpha 1 & 2 adrenergic receptors can readily be determined by modification of the above described radioligand receptor binding assay using membranes derived from cells stably expressing the desired receptor subtype including the 5-HT1A, 5-HT1B, and 5-HT1D subtypes, as well as the 5-HT2A, 5-HT2B, 5-HT2C, 5-HT4, 5-HT7, and 5-HT6 receptor subtypes. […]

[2] = biological target: T2, 5-HT7 receptor (Homo sapiens, UniProt P34969); assay: 5-HT7 receptor affinity: [3H]5-HT radioligand binding assay; details: membranes of AV-12 cells, 1 nM [3H]5-HT
T2 construct: expressed in transfected cells
T2 sequence (P34969 whole entry): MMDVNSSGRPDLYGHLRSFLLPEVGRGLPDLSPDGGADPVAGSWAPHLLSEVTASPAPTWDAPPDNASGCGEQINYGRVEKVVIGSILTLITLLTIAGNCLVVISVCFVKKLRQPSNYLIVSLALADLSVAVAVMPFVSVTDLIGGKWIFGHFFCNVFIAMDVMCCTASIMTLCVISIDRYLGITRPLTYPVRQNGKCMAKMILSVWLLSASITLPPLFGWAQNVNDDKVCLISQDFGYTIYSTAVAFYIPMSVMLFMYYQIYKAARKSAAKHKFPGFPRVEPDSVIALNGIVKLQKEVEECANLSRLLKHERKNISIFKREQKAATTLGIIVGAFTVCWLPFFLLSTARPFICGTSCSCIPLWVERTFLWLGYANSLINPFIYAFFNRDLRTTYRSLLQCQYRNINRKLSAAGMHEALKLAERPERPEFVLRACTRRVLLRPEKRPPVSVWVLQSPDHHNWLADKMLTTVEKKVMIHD
Procedure: Membranes for affinity and antagonist activity assays are prepared essentially as follows. AV-12 cells, stably expressing the 5-HT7 receptor, are grown as a monolayer in 5×T-150 flasks in DMEM/F12 (3:1) 5% FBS, 20 mM HEPES, […] geneticin, 50 mg/mL tobramycin. After growing to 90% confluence the media is removed and replaced with Hybritech media containing 2% horse serum, […] dextran sulfate, 1 mg/mL nucellin, 1 mg/mL human transferrin (partially iron saturated), 50 mg/mL tobramycin, 20 mM HEPES, […] geneticin, 0.04% pluronic F68. […]
To prepare membranes, the above pellets are resuspended in ice-cold Tris buffer (20 mM Tris HCl, pH 7.4 at 23° C., 5 mM EDTA) and homogenized with a Wheaton tissue grinder. […] Protein concentrations are determined by the method of Bradford. […]

[3] = biological target: T3, 5-HT6 (Homo sapiens, UniProt P50406); assay: Radioligand binding assay, 5-HT6
T3 construct: expressed in transfected cells
T3 sequence (P50406 whole entry, species assumed): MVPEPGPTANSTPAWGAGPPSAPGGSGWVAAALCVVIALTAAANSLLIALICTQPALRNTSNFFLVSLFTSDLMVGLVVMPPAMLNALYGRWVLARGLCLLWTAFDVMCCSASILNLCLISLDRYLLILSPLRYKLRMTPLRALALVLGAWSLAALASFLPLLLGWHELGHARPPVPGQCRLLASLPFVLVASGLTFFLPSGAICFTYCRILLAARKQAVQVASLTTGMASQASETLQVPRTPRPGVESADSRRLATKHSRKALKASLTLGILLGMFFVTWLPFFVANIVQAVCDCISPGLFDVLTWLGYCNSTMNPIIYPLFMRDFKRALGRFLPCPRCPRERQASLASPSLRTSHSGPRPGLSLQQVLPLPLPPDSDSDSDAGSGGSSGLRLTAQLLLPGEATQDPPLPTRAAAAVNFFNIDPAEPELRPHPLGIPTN
Procedure: as §1, §2

T1 sequence (P28222 whole entry, species assumed): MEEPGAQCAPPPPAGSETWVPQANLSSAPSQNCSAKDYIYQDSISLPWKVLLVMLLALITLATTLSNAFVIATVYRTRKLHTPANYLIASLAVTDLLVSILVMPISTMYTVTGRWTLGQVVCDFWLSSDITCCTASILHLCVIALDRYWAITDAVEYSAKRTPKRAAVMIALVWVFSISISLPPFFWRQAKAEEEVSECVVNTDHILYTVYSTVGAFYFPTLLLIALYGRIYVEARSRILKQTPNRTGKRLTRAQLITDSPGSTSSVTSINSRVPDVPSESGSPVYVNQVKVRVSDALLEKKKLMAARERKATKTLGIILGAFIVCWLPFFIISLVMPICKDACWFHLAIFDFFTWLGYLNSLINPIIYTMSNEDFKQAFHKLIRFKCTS

Structure (SMILES): CCn1ncc(CN2CCN(c3cccnc3N3CCC(O)CC3)CC2)c1C.Cl [Example 1, 3′-[4-(1-Ethyl-5-methyl-1H-pyrazol-4-ylmethyl)-piperazin-1-yl]-3,4,5,6-tetrahydro-2H-[1,2]bipyridinyl-4-ol hydrochloride]
- Ki [1]: > 3.58 µM
- Ki [2]: ~0.0162 µM and 0.0162 µM
- Ki [3]: > 5.83 µM
